Measured values as given in patent US20080312331A1, “Method of Treating Dailysis-Induced Hypotension” (SOLAPHARM, INC., priority 2005, published 2008).
Entries after “also recorded” stand apart in the source; their conditions may differ.

Experiment: Hemodialysis session in a patient with end-stage renal disease who regularly develops hypotension during dialysis (Example 2)
Type: in vivo
Experimental: A patient with end-stage renal disease is scheduled for hemodialysis at 11 AM. The patient's resting blood pressure is 130/80 mm Hg. At 10:40 AM the day of the 11 AM hemodialysis, the patient swallows a tablet comprising 16 mg of desglymidodrine (approximately equal in activity to 20 mg of midodrine).
In a subsequent dialysis day, the patient swallows a desglymidodrine 16 mg. tablet 20 minutes before the onset of dialysis. […] Intravenous desglymidodrine is then promptly administered by a nurse by a push infusion at a dose of 8 mg.

SMILES: COc1ccc(OC)c(C(O)CN)c1 (stereo not drawn) [desglymidodrine]
- blood pressure after treatment of intradialytic hypotension (8 mg intravenous push infusion after hypotension developed one hour into the dialysis session): blood pressure normalizes
- adverse symptoms during hemodialysis (end-stage renal disease patient, 16 mg tablet swallowed 20 minutes before hemodialysis): no adverse symptoms are exhibited
- blood pressure during hemodialysis (end-stage renal disease patient, 16 mg tablet swallowed 20 minutes before onset of hemodialysis): blood pressure stays stable; also recorded: develops hypotension
